Measurements: US12122783B2, “Stable salt of 5,10-methylene-(6R)-tetrahydrofolic acid” (MERCK & CIE, priority 2013, dated 2024)
Counter-ions that a name gives are not always drawn.

Assay: Comparative long-term stability of sulfate salt, content by HPLC
Format: physicochemical
Experimental: In order to compare the long-term stabilities of (6R)-5,10-CH2-THF hemisulfate salt, the compounds of the invention, to the long-term stabilities of (6R)-5,10-CH2-THF sulfate salt prepared according to EP 0 537 492 B1, stability data for (6R)-5,10-CH2-THF sulfate salt has been generated at various temperatures and humidities. • (a) Stability of (6R)-5,10-CH2-THF sulfate
(6R)-5,10-CH2-THF sulfate salt was prepared according to literature procedures (EP 0 537 492 B1) and stored for 15 month at −20° C. Subsequently, samples of the product were stored at 5° C. resp. at 25° C. and 60% relative humidity resp. at 40° C. and 75% relative humidity. The content of (6R)-5,10-CH2-THF sulfate salt remaining in the sample was measured by HPLC at periodic intervals. The content of (6R)-5,10-CH2-THF sulfate was compared to the initial value at the time of preparation (% rel.).

Nc1nc2c(c(=O)[nH]1)N1CN(c3ccc(C(=O)N[C@@H](CCC(=O)O)C(=O)O)cc3)C[C@H]1CN2 [(6R)-5,10-CH2-THF sulfate, 5,10-methylene-(6R)-tetrahydrofolic acid]
(6R)-5,10-CH2-THF sulfate remaining (5 °C, 0 months, after 15 months at −20 °C, relative to value at preparation): 98.7 % rel. | (6R)-5,10-CH2-THF sulfate remaining (5 °C, 6 months, after 15 months at −20 °C, relative to value at preparation): 97.3 % rel. | (6R)-5,10-CH2-THF sulfate remaining (25 °C/60% rh, 0 months, after 15 months at −20 °C, relative to value at preparation): 98.7 % rel. | (6R)-5,10-CH2-THF sulfate remaining (25 °C/60% rh, 6 months, after 15 months at −20 °C, relative to value at preparation): 95.5 % rel. | (6R)-5,10-CH2-THF sulfate remaining (40 °C/75% rh, 0 months, after 15 months at −20 °C, relative to value at preparation): 98.7 % rel. | (6R)-5,10-CH2-THF sulfate remaining (40 °C/75% rh, 6 months, after 15 months at −20 °C, relative to value at preparation): 95.0 % rel. | (6R)-5,10-CH2-THF sulfate remaining (−20 °C, 0 months): 100.0 % rel. | (6R)-5,10-CH2-THF sulfate remaining (−20 °C, 15 months): 98.7 % rel.
